According to patent publication US20240353394A1, “ASSAY METHODS FOR SCREENING INHIBITORS OF SICKLE CELL DISEASE, ß-THALASSEMIA, OR SICKLE CELL ß-THALASSEMIA, OR A PHENOTYPE THEREOF” (Alexion Pharmaceuticals, Inc., priority 2021, published 2024):

Columns and labels:
Type in all cases: cell-based, human
monocytes in whole blood = assay: Heme-induced tissue factor expression on monocytes in whole blood, flow cytometry; conditions: hirudin whole blood; for Q2 % Parent TF+: CD14 monocytes, inhibitor 1 μM, heme 100 μM, 4 hrs 37° C., Table 5
Experimental: Human whole blood was obtained internally from healthy donors according to Institutional Review Board protocol. Blood was drawn into custom hirudin blood draw tubes obtained from Haematologic Technologies (cat. SCAT-296-5/5, 500 ATU/mL). This anti-coagulant allows simultaneous activation of complement and coagulation (through but not beyond thrombin). Blood was aliquoted into facs tubes (0.2 mL per tube) and inhibitors added to 1 μM. Heme was added to 100 μM and the samples were incubated for 4 hrs at 37° C., 5% CO2, mixing approximately every 30 minutes. To stain for flow cytometry, 10 μL of TruStain FcX (Biolegend, cat. 422302) was added for a 5-10 minute incubation at RT (to block IgG receptors). Mouse anti-human CD14 PerCP Cy5.5 (BD Biosciences, cat. 550787) (5 μL per sample) and mouse anti-human tissue factor-PE (BD Biosciences, cat. 550312) were added (20 μL per sample) and the samples were mixed and incubated for 30 minutes at RT. To lyse RBCs, 3 mLs of 1× lysis buffer (BD Biosciences Cat. 555899) was added to each tube followed by vortexing and incubation for 20 min at RT. The samples were centrifuges at 340 g for 5 minutes and washed twice with PBS. Cell pellets were resuspended in 0.5 mL PBS and acquired on the LSR Fortessa for flow cytometric analysis. Monocytes were gated via CD14 triggering and data was expressed as percentage of CD14 monocytes positive for tissue factor (TF).

SS-RBCs [1] = assay: Heme-induced complement (iC3b, C5b-9) deposition on SS-RBCs, flow cytometry; conditions: for Q2 % Parent iC3b+ / Q2 % Parent C5b-9+: 20% autologous serum, heme 400 μM, 20-30 min 37° C.; for Q2 % Parent iC3b+: Table 3, FIG. 2A; for Q2 % Parent C5b-9+: Table 3, FIG. 2B; for effect on heme-induced C3 deposition (opsonization) on SS-RBCs / effect on heme-induced C5b-9 (MAC) deposition on SS-RBCs: heme and autologous serum; for effect on heme-induced C3 deposition (opsonization) on SS-RBCs: FIG. 2A; for effect on heme-induced C5b-9 (MAC) deposition on SS-RBCs: FIG. 2B
Source text: (§1) RBCs and serum from SCD patients homozygous for the mutation in the hemoglobin gene (SS) were obtained from BioIVT (cat HUMANRBCALSUZN and HMRBC-SCA respectively) and from Sanguine Biosciences (Study #24348). Gelatin Veronal Buffer (GVB) was obtained from Boston Bioproducts (cat. IBB-300X). Mg-EGTA (cat. B106), C8 depleted normal human serum (cat. A325) and normal human serum (cat. NHS) were obtained from Complement Technology. PBS was obtained from Corning, cat. 21-031-CV. Porcine heme (Sigma, cat. 51280) was used at various concentrations (50-800 uM) to amplify complement activation and induce deposition on human cells.
(§2) All centrifugations were performed at 440×g for 5 min at 4° C. and supernatants aspirated with multi-channel pipets to avoid disturbing the loose RBC pellets.
Patient SS-RBCs were washed two or three times in PBS. To induce complement deposition, RBCs were resuspended in GVB, 5 mM Mg-EGTA (assay buffer) at 5×10^7 cells/mL and 30 μL added to sterile V-96 wells. Autologous serum was added to 20% final concentration. Complement inhibitors were diluted in assay buffer at 5× working stock of 3.125 μM and 10 μL added to wells containing cells. Porcine heme was added to 400 μM and the cells incubated for 20-30 minutes at 37° C., 5% CO2. Complement activation was stopped by the addition of 150 μL/well PBS containing 10 mM EDTA. Cells were centrifuged and washed once with 200 μL PBS and stained for iC3b and C5b-9 deposition below.
Flow cytometric Analysis of iC3b and C5b-9 Deposition on the Surface of SS-RBCs
(§3) Cells were resuspended in 50 μL per well iC3b (Quidel, cat. A209) or C5b-9 antibody (Quidel, cat. A239) diluted to 4 μg/mL in PBS and incubated for 20-30 min at 4° C. (in some cases, staining for flow cytometry was performed in sheath fluid). Cells were washed twice with 150-200 μL PBS, resuspended in 50 μL goat anti-mouse IgG (H+L)-AF488 (Invitrogen cat. A11029) diluted to 4 μg/mL in PBS and incubated for 20-30 min at 4° C. In some experiments, goat anti-mouse IgG2b AF488 was used at 4 μg/mL (Invitrogen, cat. A21141). Cells were washed twice with 150-200 μL PBS and acquired on the LSR Fortessa for flow cytometric analysis.

HMEC-1 cells = assay: Heme-induced complement (iC3b, C5b-9) deposition on HMEC-1 cells, flow cytometry; conditions: for Q2 % Parent iC3b+ / Q2 % Parent C5b-9+: HMEC-1, 20% normal human serum, 1 uM inhibitor, heme 400 μM, 20-30 min 37° C.; for Q2 % Parent iC3b+: Table 4, FIG. 4A; for Q2 % Parent C5b-9+: Table 4, FIG. 4B; for effect on heme-induced C3 deposition on endothelial cells / effect on heme-induced C5b-9 (MAC, TCC) deposition on endothelial cells: HMEC-1, heme and NHS; for effect on heme-induced C3 deposition on endothelial cells: FIG. 4A; for effect on heme-induced C5b-9 (MAC, TCC) deposition on endothelial cells: FIG. 4B
Experimental: The endothelial cell line HMEC-1 was purchased from ATCC (CRL 3243) and expanded and banked at AcCellerate (Cat. CBA02, lot 92-190318FG01). This is a dermal microvascular endothelial cell line. Cells were used in experiments at passage <5.
All centrifugation steps were performed for 5-7 min at 200-300 g at room temperature (RT). HMEC-1 cells were seeded into 6 well plates at 1.5×10^5 cells per well in medium (Endothelial cell growth medium MV2, Promocell, cat. 22022) and allowed to reach confluency (72 hrs). Normal human serum (Complement Technologies, cat. NHS) was spiked with 1 uM inhibitor, diluted to 20% using Live cell imaging solution (LCIS) (Invitrogen, cat A1429DJ) containing 5-10 mM MgEGTA and added to HMEC-1 cultures in place of the medium. Heme was added to 400 μM, mixed and incubated for 20-30 min at 37° C. Cells were rinsed twice with 2 mLs PBS (Corning, cat. 21-031-CV) and detached with PBS containing 10 mM EDTA (Corning, cat. 46-034-CI). Cells were centrifuged, pellets resuspended in 400 μL sheath fluid (BD Biosciences, cat. 342003) and transferred to V-bottom 96 well plates in duplicate. After centrifugation, pellets were resuspended in 50 μL per well sheath fluid containing either iC3b or C5b-9 antibody diluted to 4 μg/mL. Following several washes, the cells were incubated with 50 μL of goat anti mouse IgG (H+L) AF 488 diluted to 4 μg/mL in sheath fluid for 30 min at 4° C. Following several washes, cells were acquired on the LSR Fortessa for flow cytometry analysis.

SS-RBCs [2] = assay: Heme dose-dependent induction of iC3b deposition on SS-RBCs
Source text: as §1, §2
Patient SS-RBCs were washed three times in PBS, resuspended in GVB, 5 mM Mg-EGTA and re-distributed to sterile V-bottom 96 well plates at a concentration of 2×10^6 cells/well. […] Heme was used at 0, 100, 200, 400, and 800 μM. Following incubation for 20-30 minutes at 37° C. 5% CO2, PBS containing 10% EDTA (Corning, cat. 46-030-CI) was added to stop complement activation. RBCs were washed and stained with antibody to iC3b as detailed below.
as §3

whole blood = assay: IL-8 production in whole blood model of thromboinflammation; conditions: heme, FIG. 6

For `CC(=O)c1nn(CC(=O)N2[C@H](C(=O)Nc3nc(Br)ccc3C)C[C@@]3(C)C[C@@H]23)c2ccc(-c3cnc(C)nc3)cc12` [ALXN2050, vermincopan], which “Q2 % Parent TF+” value (monocytes in whole blood) is on record?
The value was 1.4%.

And the “Q2 % Parent iC3b+” value (SS-RBCs [1])?
Its value is 3.5%.

What about the “Q2 % Parent C5b-9+” value (SS-RBCs [1]) of the same molecule?
The value was 3.4%.

What about the “Q2 % Parent iC3b+” value (HMEC-1 cells) of the same molecule?
Its value is 3.4%.

What about the “Q2 % Parent C5b-9+” value (HMEC-1 cells) of the same molecule?
Its value is 3%.

And the “effect on heme-induced C3 deposition on endothelial cells” value (HMEC-1 cells)?
Its value is “block”.

And the “effect on heme-induced C5b-9 (MAC, TCC) deposition on endothelial cells” value (HMEC-1 cells)?
The value was “block”.

For `C=CC1=C(C)c2cc3[n-]c(cc4[n-]c(cc5nc(cc1n2)C(C)=C5C=C)c(C)c4CCC(=O)O)c(CCC(=O)O)c3C.[Fe+2]` [heme], which “Q2 % Parent iC3b+” value (SS-RBCs [2]; 100 uM heme, 20% SS-Serum) is on record?
The value was 18.3%.

What about the “Q2 % Parent iC3b+” value (SS-RBCs [2]; 100 uM heme, No Serum) of the same molecule?
Its value is 2%.

And the “Q2 % Parent iC3b+” value (SS-RBCs [2]; 200 uM Heme, 20% SS-Serum)?
Its value is 22.8%.

What about the “Q2 % Parent iC3b+” value (SS-RBCs [2]; 200 uM Heme, No Serum) of the same molecule?
The value was 1.3%.

What about the “Q2 % Parent iC3b+” value (SS-RBCs [2]; 400 uM heme, 20% SS-Serum) of the same molecule?
Its value is 49.6%.

What about the “Q2 % Parent iC3b+” value (SS-RBCs [2]; 400 uM heme, No Serum) of the same molecule?
Its value is 1.1%.

And the “Q2 % Parent iC3b+” value (SS-RBCs [2]; 800 uM heme, 20% SS-Serum)?
Its value is 69.7%.

And the “Q2 % Parent iC3b+” value (SS-RBCs [2]; 800 uM heme, No Serum)?
The value was 0.8%.

What about the “induction of C3 deposition (opsonization) on SS-RBCs” value (SS-RBCs [2]; heme 100-800 μM, 20% autologous serum, FIG. 3) of the same molecule?
The value was “potent and dose dependent opsonization”.

B1: Crizanlizumab: antibody manufactured using the published sequence of Crizanlizumab, an anti-P-selectin antibody FDA approved for prevention of VOC in SCD (antibody, chains of the INN, looked up, V domains shown)
VH: QVQLVQSGAEVKKPGASVKVSCKVSGYTFTSYDINWVRQAPGKGLEWMGWIYPGDGSIKYNEKFKGRVTMTVDKSTDTAYMELSSLRSEDTAVYYCARRGEYGNYEGAMDYWGQGTLVTVSS
VL: DIQMTQSPSSLSASVGDRVTITCKASQSVDYDGHSYMNWYQQKPGKAPKLLIYAASNLESGVPSRFSGSGSGTDFTLTISSLQPEDFATYYCQQSDENPLTFGGGTKVEIK
Which results are given for B1?
Q2 % Parent TF+ (monocytes in whole blood): 23.2%; effect on heme-induced TF upregulation by monocytes (monocytes in whole blood; heme, FIG. 5A, FIG. 5B): no effect; Q2 % Parent iC3b+ (SS-RBCs [1]): 38.6%; Q2 % Parent C5b-9+ (SS-RBCs [1]): 7.3%; effect on heme-induced C3 deposition (opsonization) on SS-RBCs (SS-RBCs [1]): little to no effect; effect on heme-induced C3 deposition (opsonization) on SS-RBCs (SS-RBCs [1]; listed as anti-P-selectin antibody): no effect; effect on heme-induced C5b-9 (MAC) deposition on SS-RBCs (SS-RBCs [1]): little to no effect; effect on heme-induced C5b-9 (MAC) deposition on SS-RBCs (SS-RBCs [1]; listed as anti-P selectin antibody): no effect; effect on IL-8 production (whole blood): no effect; Q2 % Parent iC3b+ (HMEC-1 cells): 82.9%; Q2 % Parent C5b-9+ (HMEC-1 cells): 53.7%; effect on heme-induced C3 deposition on endothelial cells (HMEC-1 cells): no effect; effect on heme-induced C5b-9 (MAC, TCC) deposition on endothelial cells (HMEC-1 cells): no effect
